# Key:
# mouse L929 cells = test: Standard L929 cytotoxicity assay; assay type: cell-based; conditions: relative to TNF-α
# Experimental: (§1) The amount of protein was determined by the Biorad (Richmond, Calif., USA) protein dye reagent according to the instructions of the manufacturer. The purity of the TNF muteins was determined by SDS-PAGE. The cytotoxic activity on mouse L929 cells was determined using the standard L929 assay (Ruff and Gifford in "Lymphokines", ed. by E. Pick, Vol. 2, 235-275, Academic Press, 1981, Orlando, USA). The cytotoxicity assay on Hep-2 cells was performed the same way as the L929 assay with the only exception that cycloheximide (50 μg/ml) was added instead of actinomycin D.
# [1] = test system: U937 cells (predominantly but not exclusively p75-TNF-R); test: Competition analysis: displacement of 125I-TNF-α by unlabeled mutant TNF on U937 cells; assay type: binding, human; conditions: for reduction of binding affinity for p75-TNF-R: relative to its binding affinity to p55-TNF-R
# Experimental: (§2) Hep-2 [ATCC No. CCL 23], U937 [ATCC No. CRL 1593] and RAJI [ATCC No. CCL 86] cells were grown in RPMI 1640 medium, supplemented with 10% (v/v) inactivated .fetal calf serum, L-glutamine (2 mM), sodium pyruvate (1 mM), 2-mercaptoethanol (5×10^-5 M), 1% of a 100× mixture of non-essential amino acids [Gibro Laboratories, Paisley, GB] and gentamycine ([…]). The non-adherent cells (U937 and RAJI) were harvested after reaching a density of 1×10^6 cells/ml. For binding experiments, the adherent Hep-2 cells were grown to confluency, trypsinized, collected and seeded in large. Petri dishes (150 cm^2) at a density of 2.5×10^6 cells/ml. Subsequently, the dishes were placed in a CO2 -incubator overnight. Because Hep-2 cells are not strongly adherent, the cells could be harvested the same way as the non-adherent cells. Dulbecco's medium, supplemented with 10% inactivated newborn calf serum was used for L929 cell growth. […] A ten well dilution series of unlabeled mutant TNF ([…] to 0.004 μM) in concentration steps in multiples of 2 was set up in a microtiterplate. […] After addition of 2×10^6 cells, the total volume was 0.2 ml/well. The medium of incubation, reaction conditions and isolation of the cells were exactly the same as described above for the Scatchard analysis experiments. […] The following experimental data were used for such calculations: From each experiment shown in these tables, the KD value was calculated using the programm of Mc. Pherson et al. (1985).
# Hep-2 cells = assay type: cell-based, human; conditions: in words; accuracy of assay a factor of 3
# Experimental: as §1
# human p55-TNF-R = test: Filter binding competition of 125I-TNFα on purified p55-TNF-R from HL60 cells; conditions: with respect to TNFα
# Experimental: (§3) The filters were blocked with blocking buffer (50 mM Tris, 140 mM NaCl, 5 mM EDTA, 0.02% NaN3, 1% defatted milk powder) for 1.5 hours at room temperature. […] The filters were washed with blocking buffer (2× for 5 min.) and with H2 O (1× for 5 min.), air dried, and counted in a γ-counter.
# [2] = test system: Hep-2 cells (only carry p55-TNF-R); test: Competition analysis: displacement of 125I-TNF-α by unlabeled mutant TNF on Hep-2 cells; assay type: binding, human; conditions: for Mean dpm: Table C
# Experimental: as §2
# human p75-TNF-R = test: Filter binding competition of 125I-TNFα on purified p75-TNF-R from HL60 cells; conditions: for IC50: competition with 125I-TNFα; for Decrease in Affinity: with respect to TNFα
# Experimental: as §3
substance,measurement,setting,value
"Ser^29 -TNFα: TNF-α mutein with serine substituted at position 29, SEQ ID No: 4",decrease of biological activity on L929 cells (factor),mouse L929 cells,more than 100
same,binding affinity for p75-TNF-R as share of its binding affinity to p55-TNF-R,[1],about 2%
same,Mean dpm,"[1]; Table A, experiment 1, U937 cells, concentration of mutant 1 × 10^-6 [mol]",632 dpm
same,Mean dpm,"[1]; Table A, experiment 1, U937 cells, concentration of mutant 1 × 10^-9 [mol]",1869 dpm
same,Mean dpm,"[1]; Table A, experiment 1, U937 cells, concentration of mutant 1.25 × 10^-7 [mol]",1200 dpm
same,Mean dpm,"[1]; Table A, experiment 1, U937 cells, concentration of mutant 2 × 10^-6 [mol]",533 dpm
same,Mean dpm,"[1]; Table A, experiment 1, U937 cells, concentration of mutant 2 × 10^-9 [mol]",1779 dpm
same,Mean dpm,"[1]; Table A, experiment 1, U937 cells, concentration of mutant 3.2 × 10^-8 [mol]",1415 dpm
same,Mean dpm,"[1]; Table A, experiment 1, U937 cells, concentration of mutant 4 × 10^-9 [mol]",1719 dpm
same,Mean dpm,"[1]; Table A, experiment 1, U937 cells, concentration of mutant 5 × 10^-7 [mol]",949 dpm
same,Mean dpm,"[1]; Table A, experiment 1, U937 cells, concentration of mutant 6.4 × 10^-8 [mol]",1320 dpm
same,Mean dpm,"[1]; Table A, experiment 1, U937 cells, concentration of mutant 8 × 10^-9 [mol]",1708 dpm
same,Mean dpm,"[1]; Table A, experiment 1, U937 cells, concentration of mutant […] 10^-7 [mol]",983 dpm
same,Mean dpm,"[1]; Table A, experiment 1, U937 cells, concentration of mutant […] 10^-8 [mol]",1575 dpm
same,Mean dpm,"[1]; Table A, experiment 2, U937 cells, concentration of mutant 1 × 10^-6 [mol]",263 dpm
same,Mean dpm,"[1]; Table A, experiment 2, U937 cells, concentration of mutant 1.2 × 10^-7 [mol]",413 dpm
same,Mean dpm,"[1]; Table A, experiment 2, U937 cells, concentration of mutant 1.5 × 10^-8 [mol]",541 dpm
same,Mean dpm,"[1]; Table A, experiment 2, U937 cells, concentration of mutant 2 × 10^-6 [mol]",238 dpm
same,Mean dpm,"[1]; Table A, experiment 2, U937 cells, concentration of mutant 3 × 10^-8 [mol]",572 dpm
same,Mean dpm,"[1]; Table A, experiment 2, U937 cells, concentration of mutant 4 × 10^-9 [mol]",635 dpm
same,Mean dpm,"[1]; Table A, experiment 2, U937 cells, concentration of mutant 5 × 10^-7 [mol]",319 dpm
same,Mean dpm,"[1]; Table A, experiment 2, U937 cells, concentration of mutant 6 × 10^-8 [mol]",489 dpm
same,Mean dpm,"[1]; Table A, experiment 2, U937 cells, concentration of mutant 8 × 10^-9 [mol]",603 dpm
same,Mean dpm,"[1]; Table A, experiment 2, U937 cells, concentration of mutant […] 10^-7 [mol]",380 dpm
same,reduction of binding affinity for p75-TNF-R,[1],approximately 50 fold
same,biological activity (specific activity) on Hep-2 cells,Hep-2 cells,largely retained
same,Decrease in Affinity,human p55-TNF-R,8.2 fold
same,Mean dpm,"[2]; experiment 1, Hep-2 cells, concentration of mutant 1 × 10^-6",359 dpm
same,Mean dpm,"[2]; experiment 1, Hep-2 cells, concentration of mutant 1 × 10^-9",799 dpm
same,Mean dpm,"[2]; experiment 1, Hep-2 cells, concentration of mutant 1.25 × 10^-7",379 dpm
same,Mean dpm,"[2]; experiment 1, Hep-2 cells, concentration of mutant 2 × 10^-6",383 dpm
same,Mean dpm,"[2]; experiment 1, Hep-2 cells, concentration of mutant 2 × 10^-9",677 dpm
same,Mean dpm,"[2]; experiment 1, Hep-2 cells, concentration of mutant 3.2 × 10^-8",442 dpm
same,Mean dpm,"[2]; experiment 1, Hep-2 cells, concentration of mutant 4 × 10^-9",564 dpm
same,Mean dpm,"[2]; experiment 1, Hep-2 cells, concentration of mutant 5 × 10^-7",437 dpm
same,Mean dpm,"[2]; experiment 1, Hep-2 cells, concentration of mutant 6.4 × 10^-8",446 dpm
same,Mean dpm,"[2]; experiment 1, Hep-2 cells, concentration of mutant 8 × 10^-9",510 dpm
same,Mean dpm,"[2]; experiment 1, Hep-2 cells, concentration of mutant […] 10^-7",374 dpm
same,Mean dpm,"[2]; experiment 1, Hep-2 cells, concentration of mutant […] 10^-8",451 dpm
same,Mean dpm,"[2]; experiment 2, Hep-2 cells, concentration of mutant 1 × 10^-6",193 dpm
same,Mean dpm,"[2]; experiment 2, Hep-2 cells, concentration of mutant 1.2 × 10^-7",239 dpm
same,Mean dpm,"[2]; experiment 2, Hep-2 cells, concentration of mutant 1.5 × 10^-8",253 dpm
same,Mean dpm,"[2]; experiment 2, Hep-2 cells, concentration of mutant 2 × 10^-6",238 dpm
same,Mean dpm,"[2]; experiment 2, Hep-2 cells, concentration of mutant 3 × 10^-8",235 dpm
same,Mean dpm,"[2]; experiment 2, Hep-2 cells, concentration of mutant 4 × 10^-9",273 dpm
same,Mean dpm,"[2]; experiment 2, Hep-2 cells, concentration of mutant 5 × 10^-7",211 dpm
same,Mean dpm,"[2]; experiment 2, Hep-2 cells, concentration of mutant 6 × 10^-8",207 dpm
same,Mean dpm,"[2]; experiment 2, Hep-2 cells, concentration of mutant 8 × 10^-9",240 dpm
same,binding constant (KD) with Hep-2 cells compared with TNF-α,[2]; in words,almost the same as TNF-α
same,IC50,human p75-TNF-R,2.5 µg/mL
same,Decrease in Affinity,human p75-TNF-R,250 fold
"Trp^32 -TNFα: TNF-α mutein with tryptophan substituted at position 32, SEQ ID No: 9",decrease of biological activity on L929 cells (factor),mouse L929 cells,more than 100
same,binding affinity for p75-TNF-R as share of its binding affinity to p55-TNF-R,[1],about 3%
same,Mean dpm,"[1]; Table B, experiment 1, U937 cells, concentration of mutant 1 × 10^-6",777 dpm
same,Mean dpm,"[1]; Table B, experiment 1, U937 cells, concentration of mutant 1 × 10^-9",1917 dpm
same,Mean dpm,"[1]; Table B, experiment 1, U937 cells, concentration of mutant 1.25 × 10^-7",1166 dpm
same,Mean dpm,"[1]; Table B, experiment 1, U937 cells, concentration of mutant 1.5 × 10^-8",1488 dpm
same,Mean dpm,"[1]; Table B, experiment 1, U937 cells, concentration of mutant 2 × 10^-6",628 dpm
same,Mean dpm,"[1]; Table B, experiment 1, U937 cells, concentration of mutant 2 × 10^-9",1698 dpm
same,Mean dpm,"[1]; Table B, experiment 1, U937 cells, concentration of mutant 3 × 10^-8",1377 dpm
same,Mean dpm,"[1]; Table B, experiment 1, U937 cells, concentration of mutant 4 × 10^-9",1655 dpm
same,Mean dpm,"[1]; Table B, experiment 1, U937 cells, concentration of mutant 5 × 10^-7",953 dpm
same,Mean dpm,"[1]; Table B, experiment 1, U937 cells, concentration of mutant 6 × 10^-8",1333 dpm
same,Mean dpm,"[1]; Table B, experiment 1, U937 cells, concentration of mutant 8 × 10^-9",1585 dpm
same,Mean dpm,"[1]; Table B, experiment 1, U937 cells, concentration of mutant […] 10^-7",1026 dpm
same,Mean dpm,"[1]; Table B, experiment 2, U937 cells, concentration of mutant 1.10^-6",357 dpm
same,Mean dpm,"[1]; Table B, experiment 2, U937 cells, concentration of mutant 1.2 × 10^-7",508 dpm
same,Mean dpm,"[1]; Table B, experiment 2, U937 cells, concentration of mutant 1.5 × 10^-8",636 dpm
same,Mean dpm,"[1]; Table B, experiment 2, U937 cells, concentration of mutant 2 × 10^-6",294 dpm
same,Mean dpm,"[1]; Table B, experiment 2, U937 cells, concentration of mutant 3 × 10^-8",585 dpm
same,Mean dpm,"[1]; Table B, experiment 2, U937 cells, concentration of mutant 4 × 10^9",653 dpm
same,Mean dpm,"[1]; Table B, experiment 2, U937 cells, concentration of mutant 5 × 10^-7",422 dpm
same,Mean dpm,"[1]; Table B, experiment 2, U937 cells, concentration of mutant 6 × 10^-8",546 dpm
same,Mean dpm,"[1]; Table B, experiment 2, U937 cells, concentration of mutant 8 × 10^-9",629 dpm
same,Mean dpm,"[1]; Table B, experiment 2, U937 cells, concentration of mutant […] 10^-7",479 dpm
same,Mean dpm,"[1]; Table B, experiment 3 (125I-TNF batch 2), U937 cells, concentration of mutant 1 × 10^-6",1192 dpm
same,Mean dpm,"[1]; Table B, experiment 3 (125I-TNF batch 2), U937 cells, concentration of mutant 1.25 × 10^-7",2387 dpm
same,Mean dpm,"[1]; Table B, experiment 3 (125I-TNF batch 2), U937 cells, concentration of mutant 1.5 × 10^-8",3620 dpm
same,Mean dpm,"[1]; Table B, experiment 3 (125I-TNF batch 2), U937 cells, concentration of mutant 2 × 10^-6",814 dpm
same,Mean dpm,"[1]; Table B, experiment 3 (125I-TNF batch 2), U937 cells, concentration of mutant 3 × 10^-8",3275 dpm
same,Mean dpm,"[1]; Table B, experiment 3 (125I-TNF batch 2), U937 cells, concentration of mutant 4 × 10^-9",4759 dpm
same,Mean dpm,"[1]; Table B, experiment 3 (125I-TNF batch 2), U937 cells, concentration of mutant 5 × 10^-7",1472 dpm
same,Mean dpm,"[1]; Table B, experiment 3 (125I-TNF batch 2), U937 cells, concentration of mutant 6 × 10^-8",3034 dpm
same,Mean dpm,"[1]; Table B, experiment 3 (125I-TNF batch 2), U937 cells, concentration of mutant 8 × 10^-9",4041 dpm
same,Mean dpm,"[1]; Table B, experiment 3 (125I-TNF batch 2), U937 cells, concentration of mutant […] 10^-7",1981 dpm
same,reduction of binding affinity for p75-TNF-R,[1],approximately 33 fold
same,biological activity (specific activity) on Hep-2 cells,Hep-2 cells,largely retained
same,Decrease in Affinity,human p55-TNF-R,1.5 fold
same,IC50,human p75-TNF-R,5 µg/mL
same,Decrease in Affinity,human p75-TNF-R,500 fold
